According to patent US20210355104A1, “ADENOSINE RECEPTOR BINDING COMPOUNDS” (Nikang Therapeuticsm Inc., priority 2018, published 2021):
Several values for one entry are separate records, joined by “and”; a condition that tells them apart may be missing. Equal entries are not always repeated. Where two headings read alike, the source gives them in different places.

Target: Adenosine A2A receptor (Homo sapiens, UniProt P29274)
Experiment: cAMP assay in 293A cells stably expressing the adenosine A2A receptor (CGS21680 stimulation, HTRF)
Format: cell-based
Parameters: expressed in transfected cells; host or cells: 293A cells (Invitrogen, Cat# R705-07) infected with A2A-expressing lentivirus (custom packaged by Biosettia), puromycin selected
Details: 293A-A2AR cells, 0.1% BSA
Description: A 293A cell line (Invitrogen, Cat# R705-07) stably expressing the adenosine A2A receptor was generated in house. Briefly, 293A cells were seeded in 6-well plate and infected with A2A expressing lentivirus (custom packaged by Biosettia) and selected with puromycin (1 ug/ml). Cells survived selection were confirmed for A2A expression by RT-qPCR (RT Reagent: High-Capacity cDNA Reverse Transcription Kit, Applied Biosystems/Thermo Fisher Cat# 4368814, qPCR reagent: SYBR™ Green Master Mix, Applied Biosystems/Thermo Fisher Cat# 4309155). The cells were maintained in DMEM/F12 medium containing 10% FBS, 100 units/ml Penicillin, 100 μg/ml Streptomycin, and 1 μg/ml puromycin at 37° C., 5% CO2. 293A-A2AR cells were harvested on the day of assay and resuspended at 0.6 million cells/ml in DMEM/F12 with 0.1% BSA and 30 U/ml denosine deaminase(Roche, Cat #: 10102121001). Serial dilutions of compounds were prepared in DMEM/F12 with 0.1% BSA to a DMSO concentration of 0.6%. After 4 μl of compound dilutions were added, 4 μl suspended cells were dispensed into low-volume white 384-well plates (Greiner Bio-One). […] The assay plate was then incubated at room temperature for 30 min. 3 μl of d2 conjugated cAMP and 3 μl cryptate conjugated anti-cAMP antibody were then added. D2 conjugated cAMP and cryptate conjugated anti-cAMP antibody (Cisbio, Cat #: 62AM6PEC) were both prepared in cell lysis buffer according to the manufacturer's instruction. After 1 h incubation at room temperature, plates were read in CIARIOstar plate reader (BMG Labtech) using the HTRF detection mode.

[1] = 8 nM CGS, values separated by / are repeat determinations, read-out: cAMP (nM) 0.1% BSA, 8 nM CGS
[2] = 1 uM CGS, values separated by / are repeat determinations, read-out: cAMP (nM) 0.1% BSA, 1 uM CGS
[3] = 1 uM CGS, read-out: cAMP (nM) 0.1% BSA, 1 uM CGS

Adenosine A2A receptor, sequence (P29274 whole entry): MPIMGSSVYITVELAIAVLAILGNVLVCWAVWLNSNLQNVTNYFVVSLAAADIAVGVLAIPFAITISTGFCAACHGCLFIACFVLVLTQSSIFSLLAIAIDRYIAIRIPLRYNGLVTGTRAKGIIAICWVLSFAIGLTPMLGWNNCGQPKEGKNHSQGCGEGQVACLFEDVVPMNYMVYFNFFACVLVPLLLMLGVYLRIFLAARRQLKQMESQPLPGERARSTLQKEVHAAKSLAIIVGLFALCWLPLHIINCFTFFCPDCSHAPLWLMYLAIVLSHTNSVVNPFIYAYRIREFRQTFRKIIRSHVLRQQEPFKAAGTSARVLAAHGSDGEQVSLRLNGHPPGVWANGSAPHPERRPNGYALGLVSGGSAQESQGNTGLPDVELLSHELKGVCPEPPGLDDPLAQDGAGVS

SMILES	IC50 [3]	also measured
CC(=O)Nc1ccc(CCOc2nc(N)nc(-c3ccccc3)c2-c2cc(C)nc(C(F)(F)F)c2)cc1 [Example 9, N-(4-(2-((2-amino-5-(2-methyl-6-(trifluoromethyl)pyridin-4-yl)-6-phenylpyrimidin-4-yl)oxy)ethyl)phenyl)acetamide]		IC50 [1]: 5.7 nM and 14 nM
Cc1cc(-c2c(OCCN(C)c3ncccn3)nc(N)nc2-c2ccc(F)cc2)cc(C(F)F)n1 [Example 145, 5-(2-(difluoromethyl)-6-methylpyridin-4-yl)-4-(4-fluorophenyl)-6-(2-(methyl(pyrimidin-2-yl)amino)ethoxy)pyrimidin-2-amine]		IC50 [1]: 0.9 nM and 1.2 nM; IC50 [2]: 123 nM
Cc1cc(-c2c(OCCN(C)c3ccncn3)nc(N)nc2-c2ccc(F)cc2)cc(C(F)F)n1 [Example 151, 5-(2-(difluoromethyl)-6-methylpyridin-4-yl)-4-(4-fluorophenyl)-6-(2-(methyl(pyrimidin-4-yl)amino)ethoxy)pyrimidin-2-amine]		IC50 [2]: > 25000 nM
Cc1cc(-c2c(OCc3ccnn3CC3CC3)nc(N)nc2-c2ccc(F)cc2)cc(C(F)F)n1 [Example 229, 4-((1-(cyclopropylmethyl)-1H-pyrazol-5-yl)methoxy)-5-(2-(difluoromethyl)-6-methylpyridin-4-yl)-6-(4-fluorophenyl)pyrimidin-2-amine]	107 nM	
Cc1cc(-c2c(OCc3nncn3CC3CC3)nc(N)nc2-c2ccc(F)cc2)cc(C(F)F)n1 [Example 234]	647 nM	
CCN1C(=O)OCC1COc1nc(N)nc(-c2ccc(F)cc2)c1-c1cc(C)nc(C(F)F)c1 (stereo not drawn) [Example 235, 4-(((2-amino-5-(2-(difluoromethyl)-6-methylpyridin-4-yl)-6-(4-fluorophenyl)pyrimidin-4-yl)oxy)methyl)-3-ethyloxazolidin-2-one]	3710 nM	
Cc1cc(-c2c(OCc3nccn3CC(C)(C)O)nc(N)nc2-c2cccc(C#N)c2C)cc(C(F)F)n1 [Example 236, 3-(2-amino-5-(2-(difluoromethyl)-6-methylpyridin-4-yl)-6-((1-(2-hydroxy-2-methylpropyl)-1H-imidazol-2-yl)methoxy)pyrimidin-4-yl)-2-methylbenzonitrile]	> 25000 nM	
CCn1nnc(COc2nc(N)nc(-c3cccc(C#N)c3C)c2-c2cc(C)nc(C(F)F)c2)n1 [Example 237, 3-(2-amino-5-(2-(difluoromethyl)-6-methylpyridin-4-yl)-6-((2-ethyl-2H-tetrazol-5-yl)methoxy)pyrimidin-4-yl)-2-methylbenzonitrile]	2120 nM	
CCn1cnc(COc2nc(N)nc(-c3cccc(C#N)c3C)c2-c2cc(C)nc(C(F)F)c2)n1 [Example 239, 3-(2-amino-5-(2-(difluoromethyl)-6-methylpyridin-4-yl)-6-((1-ethyl-1H-1,2,4-triazol-3-yl)methoxy)pyrimidin-4-yl)-2-methylbenzonitrile]	7920 nM	
Cc1cc(-c2c(OCc3ccncn3)nc(N)nc2-c2cccc(C#N)c2C)cc(C(F)F)n1 [Example 240, 3-(2-amino-5-(2-(difluoromethyl)-6-methylpyridin-4-yl)-6-(pyrimidin-4-ylmethoxy)pyrimidin-4-yl)-2-methylbenzonitrile]	17000 nM	
CCn1nccc1COc1nc(N)nc(-c2cccc(C#N)c2C)c1-c1cc(C)nc(C(F)F)c1 [Example 243, 3-(2-amino-5-(2-(difluoromethyl)-6-methylpyridin-4-yl)-6-((1-ethyl-1H-pyrazol-5-yl)methoxy)pyrimidin-4-yl)-2-methylbenzonitrile]	2950 nM	
CCn1ccc(COc2nc(N)nc(-c3cccc(C#N)c3C)c2-c2cc(C)nc(C(F)F)c2)n1 [Example 244, 3-(2-amino-5-(2-(difluoromethyl)-6-methylpyridin-4-yl)-6-((1-ethyl-1H-pyrazol-3-yl)methoxy)pyrimidin-4-yl)-2-methylbenzonitrile]	756 nM	
Cc1cc(-c2c(OCCN(C)c3cccnn3)nc(N)nc2-c2cccc(C#N)c2C)cc(C(F)F)n1 [Example 246, 3-(2-amino-5-(2-(difluoromethyl)-6-methylpyridin-4-yl)-6-(2-(methyl(pyridazin-3-yl)amino)ethoxy)pyrimidin-4-yl)-2-methylbenzonitrile]	981 nM	
Cc1cc(-c2c(OCCN(C)c3cccc(OCC(=O)O)n3)nc(N)nc2-c2ccc(F)cc2)cc(C(F)F)n1 [Example 248, 2-((6-((2-((2-amino-5-(2-(difluoromethyl)-6-methylpyridin-4-yl)-6-(4-fluorophenyl)pyrimidin-4-yl)oxy)ethyl)(methyl)amino)pyridin-2-yl)oxy)acetic acid]	552 nM and 742 nM and 1100 nM	
Cc1cc(-c2c(OCc3nccn3CC(=O)O)nc(N)nc2-c2ccc(F)cc2)cc(C(F)F)n1 [Example 249, 2-(2-(((2-amino-5-(2-(difluoromethyl)-6-methylpyridin-4-yl)-6-(4-fluorophenyl)pyrimidin-4-yl)oxy)methyl)-1H-imidazol-1-yl)acetic acid]	7240 nM	
Cc1cc(-c2c(OCCC(C)(C)C(=O)O)nc(N)nc2-c2cccc(C#N)c2C)cc(C(F)F)n1 [Example 250, 4-((2-amino-6-(3-cyano-2-methylphenyl)-5-(2-(difluoromethyl)-6-methylpyridin-4-yl)pyrimidin-4-yl)oxy)-2,2-dimethylbutanoic acid]	8570 nM	
CCc1nn(CC)nc1COc1nc(N)nc(-c2cccc(C#N)c2C)c1-c1cc(C)nc(C(F)F)c1 [Example 254, 3-(2-amino-6-((2,5-diethyl-2H-1,2,3-triazol-4-yl)methoxy)-5-(2-(difluoromethyl)-6-methylpyridin-4-yl)pyrimidin-4-yl)-2-methylbenzonitrile]	23500 nM	

Second part, led by results:

IC50 [3]	SMILES	also measured
> 2500 nM	Cc1cc(-c2c(OCCOC(C)(C)C(=O)O)nc(N)nc2-c2ccc(F)cc2)cc(C(F)F)n1 [Example 226]	
> 25000 nM	CCc1nn(CC(=O)O)nc1COc1nc(N)nc(-c2ccc(F)cc2)c1-c1cc(C)nc(C(F)F)c1 [Example 231, 2-(4-(((2-amino-5-(2-(difluoromethyl)-6-methylpyridin-4-yl)-6-(4-fluorophenyl)pyrimidin-4-yl)oxy)methyl)-5-ethyl-2H-1,2,3-triazol-2-yl)acetic acid]	
4510 nM	CCc1c(COc2nc(N)nc(-c3ccc(F)cc3)c2-c2cc(C)nc(C(F)F)c2)nnn1CC(=O)O [Example 232, 2-(4-(((2-amino-5-(2-(difluoromethyl)-6-methylpyridin-4-yl)-6-(4-fluorophenyl)pyrimidin-4-yl)oxy)methyl)-5-ethyl-1H-1,2,3-triazol-1-yl)acetic acid]	
16300 nM	CCc1nnn(CC(=O)O)c1COc1nc(N)nc(-c2ccc(F)cc2)c1-c1cc(C)nc(C(F)F)c1 [Example 233, 2-(5-(((2-amino-5-(2-(difluoromethyl)-6-methylpyridin-4-yl)-6-(4-fluorophenyl)pyrimidin-4-yl)oxy)methyl)-4-ethyl-1H-1,2,3-triazol-1-yl)acetic acid]	
2020 nM	Cc1cc(-c2c(OCc3nnn(CC(C)(C)O)n3)nc(N)nc2-c2ccc(F)cc2)cc(C(F)F)n1 [Example 242, 1-(5-(((2-amino-5-(2-(difluoromethyl)-6-methylpyridin-4-yl)-6-(4-fluorophenyl)pyrimidin-4-yl)oxy)methyl)-2H-tetrazol-2-yl)-2-methylpropan-2-ol]	
265 nM	Cc1cc(-c2c(OCCCCO)nc(N)nc2-c2ccc(F)cc2)cc(C(F)F)n1 [Example 245, 4-((2-amino-5-(2-(difluoromethyl)-6-methylpyridin-4-yl)-6-(4-fluorophenyl)pyrimidin-4-yl)oxy)butan-1-ol]	
1280 nM	CCc1nn(CC(C)(C)O)nc1COc1nc(N)nc(-c2ccc(F)cc2)c1-c1cc(C)nc(C(F)F)c1 [Example 251, 1-(4-(((2-amino-5-(2-(difluoromethyl)-6-methylpyridin-4-yl)-6-(4-fluorophenyl)pyrimidin-4-yl)oxy)methyl)-5-ethyl-2H-1,2,3-triazol-2-yl)-2-methylpropan-2-ol]	
1260 nM	CCc1c(COc2nc(N)nc(-c3ccc(F)cc3)c2-c2cc(C)nc(C(F)F)c2)nnn1CC(C)(C)O [Example 252, 1-(4-(((2-ainino-5-(2-(difluoromethyl)-6-methylpyridin-4-yl)-6-(4-fluorophenyl)pyrimidin-4-yl)oxy)methyl)-5-ethyl-1H-1,2,3-triazol-1-yl)-2-methylpropan-2-ol]	
2150 nM	CCc1nnn(CC(C)(C)O)c1COc1nc(N)nc(-c2ccc(F)cc2)c1-c1cc(C)nc(C(F)F)c1 [Example 253, 1-(5-(((2-amino-5-(2-(difluoromethyl)-6-methylpyridin-4-yl)-6-(4-fluorophenyl)pyrimidin-4-yl)oxy)methyl)-4-ethyl-1H-1,2,3-triazol-1-yl)-2-methylpropan-2-ol]	
